Values after ≈ are worked out from the molar mass of the structure shown.
Tests used:
[1] = Glass transition temperature by DSC; assay type: physicochemical; settings: DSC 0 to 180° C. at 10° C./min
Experimental: Accurately weighted samples (containing 5 mg of Compound I. see Table 3) were prepared according to the protocols of Examples 3 and 4, except varying the polymer and the drug amount. The examples were each placed in a DSC pan (TA Instruments), which was then sealed and placed in a TA Instruments Q2000. The pan was heated at 105° C. for 3 minutes and then rapidly cooled to 0° C. for 1 minute. The DSC analysis was carried out between 0 to 180° C. at a rate of 10° C./min.

[2] = Dissolution in fasted-state simulated intestinal fluid (FaSSIF); assay type: physicochemical
Experimental: 10 mg of accurately weighted samples of Type A and Type F, and 50 mg of HPMCAS-20-SDD (ASD with 20% drug loading made via spray-drying dispersion, see Example 3) were each added to 20 mL of fasted-state simulated intestinal fluid (FaSSIF) solution (pH 6.5) in a 50-mL centrifuge tube. The tube was placed in a shaker and kept shaking with 100 rpm at 37° C. At different time intervals (10, 30, 60, 120, 240 min), 350 μL suspension was removed and centrifuged at 13,000 rpm for 3 minutes to give a clear solution that was then analyzed by HPLC.
Samples of HPMCAS-20-SDD, HPMCAS-40-SDD, HPMCAS-60-SDD, PVPVA-20-HME were tested for dissolution according to the protocols of Example 5.

[3] = assay type: physicochemical; settings: 24 h
[4] = Bioavailability of Type F crystalline form; settings: in vivo
Excerpt: Type F is a stable crystalline form and is useful as an active pharmaceutical ingredient (API) for a pharmaceutical formulation. However, its dissolution is slow and bioavailability is low (20%).

C=CC(=O)N1CCC(c2ccc(C(N)=O)c(-c3ccc(Oc4ccccc4)cc3)n2)CC1 [Type A, 6-(1-acryloylpiperidin-4-yl)-2-(4-phenoxyphenyl)nicotinamide]
Tg [1]: 69.4 °C
dissolution in FaSSIF (comparison) ([2]; FaSSIF pH 6.5, 37° C., 100 rpm, 10-240 min): better than Type F's
solubility [3]: 13 µg/mL (≈ 30.4 µM)

C=CC(=O)N1CCC(c2ccc(C(N)=O)c(-c3ccc(Oc4ccccc4)cc3)n2)CC1 [Type F, 6-(1-acryloylpiperidin-4-yl)-2-(4-phenoxyphenyl)nicotinamide]
dissolution ([2]; general statement on the crystalline form): slow
solubility [3]: 4 µg/mL (≈ 9.36 µM)
bioavailability [4]: 20%
